# Patent US20020098520A1, “Cell tests and diagnostic index for alzheimer's disease” (priority 1993, published 2002)
# “Also recorded” adds a separate entry of the source.
# Columns and labels:
# [1] = tested on: Cp20; experiment: Cp20 immunoblot of AC fibroblasts treated with β-amyloid; type: cell-based, human; details: 10 nM β-amyloid for 48 h, 9 AC cell lines
# Protocol: (§1) Cell lines and procedures for cell culture. Human skin fibroblasts were grown to confluence in 75 cc growing surface culture flasks (Falcon) containing Dulbecco's modified Eagle's medium (DMEM, Gibco), supplemented with 10% fetal calf serum (Gibco). […]
# Protein assay, immunoblotting, and total protein analyses procedures. Protein concentration was determined following an established dye-binding protein assay (R. D. Lane et al. J. Immunol Methods 92:261 (1986) for all homogenates. For immunoblots, a SDS-PAGE 4-20% gradient, […] gel was used (Novex, San Diego, Calif.). Sample volume was adjusted to give a protein concentration of 1 μg/μl. Novex sample buffer (16 μl) was added to 16 μl of sample, the solution was heated to 85° C. for 2 min, loaded into the gel and subjected to […] for ≈1.5 h. The Rainbow™ molecular weight standard (Amersham) was also loaded. The resolved proteins were electrophoretically transferred (51.2 mA for 2 h) to a unmodified 8 by 8 cm nitrocellulose paper (Pierce). […]
# [2] = tested on: proteins in the 20 kD region; experiment: Total protein analysis (SDS-PAGE, Coomassie blue) of β-amyloid treated AC fibroblasts; type: cell-based, human; details: 10 nM β-amyloid for 48 h, AC cell lines
# Protocol: as §1
# Protein assay, immunoblotting, and total protein analyses procedures. Protein concentration was determined following an established dye-binding protein assay (R. D. Lane et al. J. Immunol Methods 92:261 (1986) for all homogenates. For immunoblots, a SDS-PAGE 4-20% gradient, […] gel was used (Novex, San Diego, Calif.). Sample volume was adjusted to give a protein concentration of 1 μg/μl. Novex sample buffer (16 μl) was added to 16 μl of sample, the solution was heated to 85° C. for 2 min, loaded into the gel and subjected to […] for ≈1.5 h. The Rainbow™ molecular weight standard (Amersham) was also loaded. The resolved proteins were electrophoretically transferred (51.2 mA for 2 h) to a unmodified 8 by 8 cm nitrocellulose paper (Pierce). […] Immunoblots were then digitized on a flat bed scanner and analyzed with imaging software written in the laboratory (TN Image by T. J. Nelson) for quantitative analysis. […] MW was determined by comparison with Mark12™ standards (Novex). […]
# [3] = tested on: 113 pS K+ channel; details: low β-amyloid concentration (10 nM), cited from earlier work
substance,measurement,setting,value
β-amyloid 1-40 peptide,Cp20 level in treated cells compared to non-treated counterparts,[1],significantly reduced; also recorded: reduction of Cp20; also recorded: induced the Alzheimer's disease phenotypes for Cp20
same,effect on total protein profile / proteins in the 20 kD region,[2],not a generalized effect on all proteins in the 20 kD region; also recorded: revealed no differences
same,effect on the 113 pS K+ channel / K+ function,[3]; control cells,specific AD-like effects; also recorded: induces an AD-like K+ dysfunction
same,effect on basal levels of intracellular Ca^2+,[3],without altering basal levels
